Converted amounts (≈) assume the structure as drawn. Like-named read-outs stand apart in the source and are kept apart here.
Columns and labels:
[1] = test system: Staphylococcus aureus; assay: MIC, broth microdilution (Example 1); format: cell-based
In short: (§1)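 Broth microdilution per CLSI M7-A7; H. influenzae in Haemophilus Test Medium, streptococci in Mueller Hinton II Broth with 2% lysed horse blood, other organisms in Mueller Hinton II Broth. Two-fold serial dilutions; plates incubated 35° C ~20 hours, MIC read visually as growth/no-growth.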

[2] = test system: Haemophilus influenzae; assay: MIC, broth microdilution (Example 1); format: cell-based
In short: (§2)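 Following the CLSI M7-A7 microdilution standard, each agent alone was tested across seven 2-fold steps. The drugs were in DMSO, and the medium was HTM, MH II broth, or MH II broth with 2% lysed horse blood depending on species. MIC was read visually after ~20 h at 35 °C.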

[3] = test system: Acinetobacter baumannii; assay: MIC, broth microdilution (Example 1); format: cell-based
In short: as §1

[4] = test system: Escherichia coli; assay: MIC, broth microdilution (Example 1); format: cell-based; conditions: Escherichia coli, read-out: MIC
In short: as §1

[5] = test system: Streptococcus pneumoniae; assay: MIC, broth microdilution (Example 1); format: cell-based; conditions: Streptococcus pneumoniae, read-out: MIC
In short: as §2

[6] = test system: Klebsiella pneumoniae; assay: MIC, broth microdilution (Example 1); format: cell-based
In short: as §2

[7] = test system: Enterococcus faecalis; assay: MIC, broth microdilution (Example 1); format: cell-based
In short: as §1

[8] = test system: ESBL-producing E. coli; assay: Susceptibility testing MIC/MBC, broth microdilution (Example 2); format: cell-based, Escherichia coli; conditions: for MBC / MIC: Escherichia coli
[9] = test system: HA-MRSA; assay: Time-kill curves at ¼ and ½ MIC (Example 3); format: cell-based, Staphylococcus aureus; conditions: drug alone at ½ MIC, the 2 vancomycin-susceptible MRSA, followed by regrowth
Procedure: Four strains, including 1 hVISA and 1 VISA, characterized by population analysis profile and Macro Etest were selected for time-kill analysis.
Trypose soy agar (TSA; Difco, Detroit, Mich.) was used for colony counting.
Four randomly selected HA-MRSA isolates were evaluated in time-kill experiments, using a starting inoculum at ˜10^6 CFU/mL and antimicrobials at ¼ and ½ MIC. Regimens included ceftaroline, vancomycin and tobramycin alone or combination of tobramycin with ceftaroline or vancomycin. […] Additivity, antagonism and indifference were defined as <2 but >1 log10 kill, >1 log10 growth and ±1 log kill, respectively.
Differences between regimens were analyzed by T-test or ANOVA with Tukey's post hoc test. […] A P value <0.05 was considered significant.

Compound: CCO/N=C(\C(=O)N[C@@H]1C(=O)N2C(C(=O)[O-])=C(Sc3nc(-c4cc[n+](C)cc4)cs3)CS[C@H]12)c1nsc(N)n1 [Ceftaroline]
- MIC ([1]; S. aureus 0765 (MRSA)): 2 µg/mL
- MIC ([1]; Staphylococcus aureus, MRSA, S. aureus 0765 (MRSA), read-out: MIC): 1 µg/mL
- MIC ([1]; Staphylococcus aureus, MRSA, S. aureus 2053 (MRSA), read-out: MIC): 2 µg/mL
- MIC ([1]; Staphylococcus aureus, MRSA, S. aureus 2202 (CA-MRSA), read-out: MIC): 1 µg/mL
- MIC ([1]; Staphylococcus aureus, MRSA, S. aureus 2296 (CA-MRSA), read-out: MIC): 1 µg/mL
- MIC ([1]; Staphylococcus aureus, MSSA, S. aureus 0753 (MSSA), read-out: MIC): 0.5 µg/mL
- MIC ([1]; Staphylococcus aureus, MSSA, S. aureus 2063 (MSSA), read-out: MIC): 0.5 µg/mL
- MIC ([2]; H. influenzae 1224): 0.12 µg/mL
- MIC ([2]; H. influenzae 2797 (BLNAR)): 0.12 µg/mL
- MIC ([2]; Haemophilus influenzae, H. influenzae 1224, read-out: MIC): 0.06 µg/mL
- MIC ([2]; Haemophilus influenzae, H. influenzae 2797 (BLNAR), read-out: MIC): 0.06 µg/mL
- MIC ([2]; Haemophilus influenzae, H. influenzae 2798 (BLNAR), read-out: MIC): 0.03 µg/mL
- MIC ([2]; Haemophilus influenzae, H. influenzae 2799 (BLNAR), read-out: MIC): 0.03 µg/mL
- MIC ([3]; A. baumannii 2602): 2 µg/mL
- MIC ([3]; Acinetobacter baumannii, A. baumannii 2601, read-out: MIC): 2 µg/mL
- MIC ([4]; E. coli 1587): 0.12 µg/mL
- MIC ([4]; E. coli 2273 (ESBL)): 2 µg/mL
- MIC ([5]; PRSP, S. pneumoniae 0876 (PRSP)): 0.12 µg/mL
- MIC ([5]; PRSP, S. pneumoniae 0877 (PRSP)): 0.12 µg/mL
- MIC ([5]; PRSP, S. pneumoniae 0880 (PRSP)): 0.12 µg/mL
- MIC ([5]; PRSP, S. pneumoniae 0884 (PRSP)): 0.12 µg/mL
- MIC ([5]; S. pneumoniae 0869 (PSSP)): 0.008 µg/mL
- MIC ([6]; K. pneumoniae 1461): 0.5 µg/mL
- MIC ([6]; Klebsiella pneumoniae, K. pneumoniae 1340, read-out: MIC): 0.12 µg/mL
- MIC ([6]; Klebsiella pneumoniae, K. pneumoniae 1461, read-out: MIC): 0.25 µg/mL
- MIC ([6]; Klebsiella pneumoniae, K. pneumoniae 1468 (ESBL), read-out: MIC): 32 µg/mL
- MIC ([7]; E. faecalis 0796 (VSE)): 4 µg/mL
- MIC ([7]; Enterococcus faecalis, E. faecalis 0795 (VSE), read-out: MIC): 8 µg/mL
- MIC ([7]; Enterococcus faecalis, E. faecalis 0796 (VSE), read-out: MIC): 2 µg/mL
- MIC ([7]; Enterococcus faecalis, VRE, E. faecalis 0847 (VRE), read-out: MIC): 2 µg/mL
- MIC ([7]; Enterococcus faecalis, VRE, E. faecalis 0849 (VRE), read-out: MIC): 4 µg/mL
- MBC range ([8]; E. coli (10) clinical isolates): 4 to 1024 µg/mL
- MIC range ([8]; E. coli (10) clinical isolates): 2 to 512 µg/mL
- MBC ([8]; E. coli isolate no. 5401, read-out: MBC): 8 µg/mL (≈ 13.2 µM)
- MIC ([8]; E. coli isolate no. 5401, read-out: MIC): 4 µg/mL (≈ 6.61 µM)
- MBC ([8]; E. coli isolate no. 5411): 128 µg/mL (≈ 212 µM)
- MIC ([8]; E. coli isolate no. 5411): 64 µg/mL (≈ 106 µM)
- kill at 4 hours [9]: 1.5 log10

Source: patent US20100197650A1, “COMPOSITIONS AND METHODS OF TREATMENT COMPRISING CEFTAROLINE” (FOREST LABORATORIES HOLDINGS LTD., priority 2008, published 2010)
